Literature values in patent US20210161808A1, “Nasal Drug Delivery System of Brivaracetam or Salt Thereof” (Zenvision Pharma LLP, priority 2018, published 2021).
Where two headings read alike, the source gives them in different places.

Legend:
[1] = biological target: synaptic vesicle protein 2A (SV2A) (Homo sapiens, UniProt Q7L0J3); conditions: in the brain
Chain of synaptic vesicle protein 2A (SV2A) (Q7L0J3 whole entry): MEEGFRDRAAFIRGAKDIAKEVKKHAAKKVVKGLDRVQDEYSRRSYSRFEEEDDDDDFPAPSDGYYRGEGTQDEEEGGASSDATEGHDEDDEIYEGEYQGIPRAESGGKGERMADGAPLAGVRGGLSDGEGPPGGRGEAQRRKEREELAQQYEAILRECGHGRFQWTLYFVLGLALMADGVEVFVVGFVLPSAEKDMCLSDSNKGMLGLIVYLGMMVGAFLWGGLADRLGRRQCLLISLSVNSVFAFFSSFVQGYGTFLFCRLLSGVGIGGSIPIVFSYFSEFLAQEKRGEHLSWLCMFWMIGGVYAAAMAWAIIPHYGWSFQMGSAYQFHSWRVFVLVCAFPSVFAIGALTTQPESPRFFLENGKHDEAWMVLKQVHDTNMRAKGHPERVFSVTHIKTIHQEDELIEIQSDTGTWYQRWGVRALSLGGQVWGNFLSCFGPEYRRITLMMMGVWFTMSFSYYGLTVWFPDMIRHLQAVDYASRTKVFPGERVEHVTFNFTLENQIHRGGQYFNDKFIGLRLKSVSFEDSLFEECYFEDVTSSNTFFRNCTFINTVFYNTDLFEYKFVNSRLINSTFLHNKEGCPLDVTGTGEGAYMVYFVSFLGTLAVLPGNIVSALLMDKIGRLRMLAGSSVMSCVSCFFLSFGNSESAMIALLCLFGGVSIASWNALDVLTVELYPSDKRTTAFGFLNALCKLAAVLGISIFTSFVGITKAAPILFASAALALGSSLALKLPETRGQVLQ

For CCC[C@@H]1CC(=O)N([C@@H](CC)C(N)=O)C1 [Brivaracetam, (2S)-2-[(4R)-2-oxo-4-propyltetrahydro-1H-pyrrol-1-yl] butanamide], the “affinity for synaptic vesicle protein 2A (SV2A)” value [1] is given as “high and selective affinity”, the solubility (in acetone) is given as “freely soluble” and the solubility (in acetonitrile) is given as “freely soluble”. For the same compound, the solubility (in buffer (pH 1.2, 4.5, and 7.4)) was “very soluble”, the solubility (in ethanol) was “very soluble” and the solubility (in glacial acetic acid) was “very soluble”. For the same compound, the solubility (in methanol) was “very soluble”, the solubility (in n-hexane) was “very slightly soluble” and the solubility (in toluene) was “soluble”. The solubility (in water) was “very soluble”.
